Experiments:
[1] = test system: PFV; conditions: previous studies; cited from earlier work
[2] = test system: PFV; conditions: virus producing cells treated with inhibitor
[3] = test system: PFV; format: cell-based, Prototype Foamy Virus (SFVcpz(hu))
[4] = molecular target: HIV-1 RT (Human immunodeficiency virus type 1 group M subtype B, UniProt P03366); test: 3TCTP inhibition assay, M13 template, radiolabeled dCTP incorporation; conditions: 1.0 μM 3TCTP; activity without drug set at 100%
Procedure: The 3TCTP inhibition assays were performed using the M13 template and the −47 primer. The −47 sequencing primer was annealed to the single stranded M13mp18 DNA by heating to 95° C. and slowly cooling to room temperature. The template-primer was extended by adding 1.0 μg of RT in 25 mM Tris(pH 8.0), 75 mM KCl, 8.0 mM MgCl2, 100 μg/ml BSA, 10 mM CHAPS, 10 μM each of dATP, dGTP, and dTTP, 2.0 μM [α-^32P]dCTP, and the indicated concentrations of 3TCTP (Moravek Biochemicals, Brea, Calif.) in a 100 μl reaction volume. The mixture was incubated at 37° C. for 30 min, then halted by the addition of 3 ml of ice-cold trichloroacetic acid (TCA) and the precipitated DNA was collected by suction filtration through Whatman GF/C glass filters. The amount of incorporated radioactivity was determined by liquid scintillation counting.
Samples were TCA precipitated, bound to glass filters, and incorporation of radiolabeled dCTP was measured. […] These levels of RT activity in the absence of drug were set at 100% activity for each recombinant RT.

O=c1[nH]cnc2c1ncn2[C@H]1CC[C@@H](CO)O1 [ddI]
specific inhibition of production of infectious PFV particles [1]: not

Nc1ccn([C@@H]2CS[C@H](CO)O2)c(=O)n1 [3TC]
specific inhibition of production of infectious PFV particles [1]: not

Cc1cn([C@H]2C[C@H](N=[N+]=[N-])[C@@H](CO)O2)c(=O)[nH]c1=O [AZT]
specific decrease in infectivity [2]: greater than 10 fold | specific inhibition of production of infectious PFV particles [1]: specific inhibition was demonstrated

Nc1nc(=O)n(C2CSC(CO)O2)cc1F (stereo not drawn) [FTC, beta-2′,3′-dideoxy-5-fluoro-3′-thiacytidine]
Titer Relative to No-Drug Control, Pretreated [3]: 122

Nc1ccn([C@@H]2CS[C@H](COP(=O)(O)OP(=O)(O)OP(=O)(O)O)O2)c(=O)n1 [3TCTP]
activity retained by HIV-1 RT [4]: 37%
